Measurements as given in patent publication US8969373B2, “HCV protease inhibitors” (Shanghai Tangrun Pharmaceuticals Co., Ltd., priority 2011, dated 2015).

How the values were obtained:
[1] = system: HCV replicon (pSGR-399LM) in Huh7 cells; experiment: Inhibitory activity in the HCV replicon system (Renilla luciferase); format: cell-based; settings: Hepatitis C virus, Huh-7, pSGR-399LM replicon Huh7 cells, 72 hr
Method: The Inhibitory Activity of Compounds in the HCV Replicon System
HCV replicon cell-line: The Huh7 cells were transfected with pSGR-399LM replicon DNA and cultured in the DMEM containing 10% FBS and 0.5 mg/mL G418. The cells were split at 1:3 to 1:5 every 3-4 days. The transfected cells were seeded in 96-well plates and cultured at 37° C., 5% CO2 for 24 hr.
Treatment with samples: To the HCV replicon Huh7 cells-line were added different concentration of the samples (i.e. compound Ik, wherein k=1, 2, 3 . . . 42), the each concentration for duplicate, and set no sample control wells. The concentration started at 400 nM, with quarter dilution to form five different concentrations of samples, that is 400 nM, 100 nM, 25 nM, 6.25 nM and 1.56 nM. The samples were added separately, and continued to incubated for 72 hr.
Fluorescence detection: After 72 hr treatment with sample, the cells were lysed and added with Renilla luciferase substrate to detect luminescent signal. The relative luminescent unit (RLU) in the luminometer was read out and used to calculate the inhibition rate of HCV.

[2] = system: HCV (J399EM virus) in Huh7.5.1 cells; experiment: Inhibition of HCV replication in HCV infected human hepatocellular carcinoma cells (Huh7.5.1), HCV-EGFP fluorescence; format: cell-based; settings: Hepatitis C virus, Huh-7.5.1, 72 h, read-out: HCV infected human hepatocellular carcinoma cells in vitro EC50(nM)
Method: In Vitro Inhibitory Activity of Compounds in HCV Replication in HCV Infected Human Hepatocellular Carcinoma Cells (Huh7.5.1)
The preparation of Huh7.5.1cells: Huh 7.5.1 cells were seeded at a 96-well plate with 37 and 5% CO2 for 24 hours incubation.
Virus infection: Using the J399EM virus supernatants (moi≈0.1) to infect Huh7.5.1cells. At the same time, the no virus infected cell will be set up as the control. After 8 hours virus infection, the virus will be washed out with PBS.
Drug treatment: The different doses of samples (i.e. the compound Ik, wherein k=1, 2, 3, . . . 42) were added in J399EM infected Huh7.5.1 cells, the each dose for duplicate. At the same time the no sample added in wells will be set up as the control. The test dose of sample is starting from 25 nM or 400 nM, with quarter dilution, 5 doses of sample will be added in the test wells, respectively, then continued for 72 hours incubation.
HCV-EGFP fluorescence detection: After samples treatment for 72 hours, the autofluorescence of HCV-EGFP were measured by the luminometer with excitation of 488 nm, and emission of 516 nm. The related fluorescence unit (RFU) of samples will be read out and used for calculating the inhibitory rates of compounds in HCV replication.

[3] = Pharmacokinetic evaluation in SD rats after oral administration; format: in vivo, Sprague-Dawley (SD) rats; settings: male, Sprague-Dawley, rat, plasma, oral gavage, 10 mg/kg; for Cmax / bioavailability: po; for Cmax: read-out: Cmax; for bioavailability: read-out: F (absolute bioavailability)
Method: Pharmacokinetic Evaluation of the Compounds of this Invention
Twenty healthy male Sprague-Dawley (SD) rats with body weight of 200-220 g were divided into 5 groups randomly and each group contains 4 rats. Before the experiment, rats were fasted for 12 h with free access to water. The compound Ik (wherein k=2, 5, 18, 34 or 38) of this invention was administered by oral gavage at a dose level of 10 mg/kg. The compounds were prepared with 0.5% CMC-Na containing 1% Tween 80. The dose volume was 10 mL/kg. The rats were afforded unlimited access to food after 2 h of dosing 0.3 mL of blood samples were collected at 0.25 h, 0.5 h, 1.0 h, 2.0 h, 3.0 h, 5.0 h, 7.0 h, 9.0 h, and 24.0 h, respectively, from postocular venous plexes of the rat. The blood samples were placed in heparin-containing tubes and immediately centrifuged at 11000 rpm for 5 min. Plasma was separated and refrigerated at −20° C. until analysis. LC-MS/MS methods were used to quantify plasma concentrations of the compound Ik.

SMILES	EC50 [1]	EC50 [2]	also measured
C=C[C@@H]1C[C@]1(NC(=O)[C@@H]1C[C@@H](Oc2cc(-c3ccccc3)nc3c2oc2ccccc23)CN1C(=O)[C@@H](NC(=O)OC(C)(C)C)C(C)(C)C)C(=O)NS(=O)(=O)C1CC1 [Compound 38]	< 100 nM	< 100 nM	AUC(0-inf) [3]: 243 ± 81 ng·h/mL; AUC(0-t) [3]: 239 ± 81 ng·h/mL; Tmax [3]: 37.8 ± 15 min; half-life [3]: 43.2 ± 18 min; Cmax [3]: 150 ± 42 ng/mL; bioavailability [3]: 8.7%
C=C[C@@H]1C[C@]1(NC(=O)[C@@H]1C[C@@H](Oc2cc(-c3csc(NC(=O)C(C)C)n3)nc3c2oc2ccc(OC)c(Cl)c23)CN1C(=O)[C@@H](NC(=O)OC(C)(C)C)C(C)(C)C)C(=O)NS(=O)(=O)C1CC1 [Compound 34]	< 100 nM	< 100 nM	AUC(0-inf) [3]: 11 ± 1.1 ng·h/mL; AUC(0-t) [3]: 9.6 ± 0.9 ng·h/mL; Tmax [3]: 24 ± 12 min; half-life [3]: 30 ± 18 min; Cmax [3]: 11.4 ± 4.3 ng/mL; bioavailability [3]: 1.6%
C=C[C@@H]1C[C@]1(NC(=O)[C@@H]1C[C@@H](Oc2cc(-c3ccccc3)nc3c2oc2ccc(Cl)cc23)CN1C(=O)[C@@H](NC(=O)OC(C)(C)C)C(C)(C)C)C(=O)NS(=O)(=O)C1CC1 [Compound 4, tert-butyl(S)-1-((2S,4R)-4-(8-chloro-2-phenylbenzofuro[3,2-b]pyridin-4-yloxy)-2-((1R,2S)-1-(cyclopropylsulfonylcarbamoyl)-2-vinylcyclopropylcarbamoyl)pyrrolidin-1-yl)-3,3-dimethyl-1-oxobutan-2-yl carbamate]	< 100 nM	100 to 1000 nM	–
C=C[C@@H]1C[C@]1(NC(=O)[C@@H]1C[C@@H](Oc2nc3c4ccccc4oc3c3ccc(Cl)cc23)CN1C(=O)[C@@H](NC(=O)OC1CCCC1)C(C)(C)C)C(=O)NS(=O)(=O)C1CC1 [Compound 20]	< 100 nM	< 100 nM	–
C=C[C@@H]1C[C@]1(NC(=O)[C@@H]1C[C@@H](Oc2nc3c4cc(OC)ccc4oc3c3ccc(Cl)cc23)CN1C(=O)[C@@H](NC(=O)OC(C)(C)C)C(C)(C)C)C(=O)NS(=O)(=O)C1CC1 [Compound 32]	< 100 nM	100 to 1000 nM	–
C=C[C@@H]1C[C@]1(NC(=O)[C@@H]1C[C@@H](Oc2cc(-c3csc(NC(=O)C(C)C)n3)nc3c2oc2ccc(OC)c(Br)c23)CN1C(=O)[C@@H](NC(=O)OC(C)(C)C)C(C)(C)C)C(=O)NS(=O)(=O)C1CC1 [Compound 35]	< 100 nM	< 100 nM	–
C=C[C@@H]1C[C@]1(NC(=O)[C@@H]1C[C@@H](Oc2nc3c4cc(Cl)ccc4oc3c3ccccc23)CN1C(=O)[C@@H](NC(=O)OC(C)(C)C)C(C)(C)C)C(=O)NS(=O)(=O)C1CC1 [Compound 11]	< 100 nM	100 to 1000 nM	–
C=C[C@@H]1C[C@]1(NC(=O)[C@@H]1C[C@@H](Oc2cc(-c3ccccc3)nc3c2sc2cccc(Cl)c23)CN1C(=O)[C@@H](NC(=O)OC(C)(C)C)C(C)(C)C)C(=O)NS(=O)(=O)C1CC1 [Compound 1]	100 to 1000 nM	100 to 1000 nM	–
CC(C)(C)OC(=O)N[C@H]1CCCCC/C=C\[C@@H]2C[C@@]2(C(=O)NS(=O)(=O)C2CC2)NC(=O)[C@@H]2C[C@@H](Oc3nc4c5ccc(F)cc5sc4c4ccccc34)CN2C1=O [Compound 10]	< 100 nM	< 100 nM	–
C=C[C@@H]1C[C@]1(NC(=O)[C@@H]1C[C@@H](Oc2cc(-c3ccccc3)nc3c2oc2ccc(OC)c(Br)c23)CN1C(=O)[C@@H](NC(=O)OC(C)(C)C)C(C)(C)C)C(=O)NS(=O)(=O)C1CC1 [Compound 27]	< 100 nM	< 100 nM	–
C=C[C@@H]1C[C@]1(NC(=O)[C@@H]1C[C@@H](Oc2cc(-c3csc(C(C)C)n3)nc3c2oc2ccc(OC)c(Cl)c23)CN1C(=O)[C@@H](NC(=O)OC(C)(C)C)C(C)(C)C)C(=O)NS(=O)(=O)C1CC1 [Compound 24]	< 100 nM	< 100 nM	–
CC(C)(C)OC(=O)N[C@H]1CCCCC/C=C\[C@@H]2C[C@@]2(C(=O)NS(=O)(=O)C2CC2)NC(=O)[C@@H]2C[C@@H](Oc3nc4c5ccccc5oc4c4ccc(Br)cc34)CN2C1=O [Compound 16]	< 100 nM	< 100 nM	–
C=C[C@@H]1C[C@]1(NC(=O)[C@@H]1C[C@@H](Oc2cc(-c3csc(C(C)(C)O)n3)nc3c2oc2ccc(OC)c(Br)c23)CN1C(=O)[C@@H](NC(=O)OC(C)(C)C)C(C)(C)C)C(=O)NS(=O)(=O)C1CC1 [Compound 26]	< 100 nM	< 100 nM	–
C=C[C@@H]1C[C@]1(NC(=O)[C@@H]1C[C@@H](Oc2cc(-c3csc(C(C)(C)O)n3)nc3c2oc2ccc(OC)c(Cl)c23)CN1C(=O)[C@@H](NC(=O)OC(C)(C)C)C(C)(C)C)C(=O)NS(=O)(=O)C1CC1 [Compound 25]	< 100 nM	< 100 nM	–
C=C[C@@H]1C[C@]1(NC(=O)[C@@H]1C[C@@H](Oc2cc(-c3ccccc3)nc3c2oc2ccc(Br)cc23)CN1C(=O)[C@@H](NC(=O)OC(C)(C)C)C(C)(C)C)C(=O)NS(=O)(=O)C1CC1 [Compound 8]	< 100 nM	100 to 1000 nM	–
C=C[C@@H]1C[C@]1(NC(=O)[C@@H]1C[C@@H](Oc2cc(-c3ccccc3)nc3c2oc2ccc(OC)cc23)CN1C(=O)[C@@H](NC(=O)OC(C)(C)C)C(C)(C)C)C(=O)NS(=O)(=O)C1CC1 [Compound 3, tert-butyl(S)-1-((2S,4R)-2-((1R,2S)-1-(cyclopropylsulfonylcarbamoyl)-2-vinylcyclopropylcarbamoyl)-4-(8-methoxy-2-phenylbenzofuro [3,2-b]pyridin-4-yloxy)pyrrolidin-1-yl)-3,3-dimethyl-1-oxobutan-2-yl carbamate]	< 100 nM	100 to 1000 nM	–
C=C[C@@H]1C[C@]1(NC(=O)[C@@H]1C[C@@H](Oc2nc3c4cc(Cl)ccc4oc3c3ccccc23)CN1C(=O)[C@@H](CC(=O)OC(C)(C)C)C(C)(C)C)C(=O)NS(=O)(=O)C1CC1 [Compound 13]	100 to 1000 nM	100 to 1000 nM	–
C=C[C@@H]1C[C@]1(NC(=O)[C@@H]1C[C@@H](Oc2cc(-c3ccccc3)nc3c2sc2cc(F)ccc23)CN1C(=O)[C@@H](NC(=O)OC(C)(C)C)C(C)(C)C)C(=O)NS(=O)(=O)C1CC1 [Compound 7]	< 100 nM	< 100 nM	–
C=C[C@@H]1C[C@]1(NC(=O)[C@@H]1C[C@@H](Oc2nc3c4ccccc4oc3c3ccc(Cl)cc23)CN1C(=O)[C@@H](NC(=O)OC(C)(C)C)C(C)(C)C)C(=O)NS(=O)(=O)C1CC1 [Compound 29]	< 100 nM	< 100 nM	–
C=C[C@@H]1C[C@]1(NC(=O)[C@@H]1C[C@@H](Oc2nc3c4ccccc4oc3c3ccc(Br)cc23)CN1C(=O)[C@@H](NC(=O)OC(C)(C)C)C(C)(C)C)C(=O)NS(=O)(=O)C1CC1 [Compound 30]	100 to 1000 nM	100 to 1000 nM	–
O=C1N[C@]2(C(=O)NS(=O)(=O)C3CC3)C[C@H]2/C=C\CCCCC[C@H](CC(=O)N2CCCCC2)C(=O)N2C[C@H](Oc3cc(-c4ccccc4)nc4c3oc3ccccc34)C[C@@H]12 [Compound 36]	< 100 nM	100 to 1000 nM	–
C=C[C@@H]1C[C@]1(NC(=O)[C@@H]1C[C@@H](Oc2nc3c4ccccc4oc3c3ccc(OC)cc23)CN1C(=O)[C@@H](NC(=O)OC(C)(C)C)C(C)(C)C)C(=O)NS(=O)(=O)C1CC1 [Compound 31]	100 to 1000 nM	100 to 1000 nM	–
CC(C)(C)OC(=O)N[C@H]1CCCCC/C=C\[C@@H]2C[C@@]2(C(=O)NS(=O)(=O)C2CC2)NC(=O)[C@@H]2C[C@@H](Oc3nc4c5ccccc5oc4c4ccc(Cl)cc34)CN2C1=O [Compound 17]	< 100 nM	< 100 nM	–
C=C[C@@H]1C[C@]1(NC(=O)[C@@H]1C[C@@H](Oc2nc3c4ccc(F)cc4sc3c3ccccc23)CN1C(=O)[C@@H](NC(=O)OC(C)(C)C)C(C)(C)C)C(=O)NS(=O)(=O)C1CC1 [Compound 12]	< 100 nM	100 to 1000 nM	–
